Laboratory results reported in patent publication US20150250166A1, “NOOTKATONE AS AN INSECTICIDE AND INSECT REPELLENT” (ALLYLIX, INC., priority 2012, published 2015).

System: adult bed bugs (Cimex lectularius)
Assay: Bed bug repellency, treated versus untreated filter paper halves in Petri dish chamber
Assay type: in vivo
Settings: for Repellency (%) Treatment Group / bed bugs on Nootkatone treatment filter paper (count, of 50) / Repellency (summary of bedbug repellency): 0.1% BHT; for Corrected 0.25% nootkatone repellency / bed bugs on 0.25% Nootkatone-treated filter paper, average count (of 10) / Corrected 1% nootkatone repellency / bed bugs on 1% Nootkatone-treated filter paper, average count (of 10): 0.1% BHT in ethanol, dried paper; for Nootkatone Repellency / bed bugs on nootkatone-treated filter paper (count, of 50): 5% Nootkatone in acetone, 0.1% BHT (title; column head prints 10%); for Nootkatone Repellency (corrected for isopropanol control) / bed bugs on 10% Nootkatone-treated filter paper, average count of five trials (of 10): 10% nootkatone, 0.1% BHT in isopropanol
Protocol: A formulation, containing 10% nootkatone, 0.1% butylated hydroxytoluene (BHT) in isopropanol was tested for efficacy for repelling adult bed bugs (Cimex lectularius). Treatment chambers were created by cutting a circular hole in the bottom of 15-cm Petri dishes. A fine mesh nylon cloth was then glued to Petri dishes, covering the holes. The chambers were formed using the inverted Petri dishes with the screened bottoms serving as the tops and the lids forming the base of the chambers. The lids were secured with rubber bands.
Five semi-circular pieces of filter paper, with a diameter of 15 cm, were arranged so that they were evenly spaced on a sheet of aluminum foil. Equal amounts of 10% nootkatone solution, stored at ambient temperature and humidity, were applied to the filter papers until they were wet to the point of runoff. Five untreated semi-circular pieces were marked with the letter “c”, for control, on both sides in pencil or solvent resistant ink. One nootkatone-treated filter paper and one untreated filter paper were placed with the flat sides against each other, creating a full circle, in the lids of five 15-cm Petri dishes, serving as the treatment chambers described above, such that the entire surface of the lid was covered. Immediately after placing the filter paper semi-circles into the lid, 10 bed bugs, having received a blood meal no more than 7 days before, were placed onto the untreated piece of paper and covered with the ventilated base of the Petri dish. The containers of each replicate were then kept at ambient laboratory temperature and humidity for the duration of the study. The distribution of the bed bugs on the treated and untreated filter papers was recorded at 0.5, 1, 1.5, 2, and 24 hours after being placed in the containers. Observations were made in darkness with the aid of a red lens flashlight. Gloves and a dust mask were worn by the observer to reduce detection of the bed bugs and to minimize disturbance caused by the observer. Five additional treatment chambers were created as described above, except the treated filter paper was soaked with isopropyl alcohol (control treatment), instead of the 10% nootkatone solution. Bed bug distribution in the control chambers were recorded as described for the treatment condition.
The nootkatone treatment repellency was calculated from the following equation: R=[(C−T)/C]*100, where R is the % repellency, C is the fraction of bed bugs on the isopropanol-treated filter papers, and T is the fraction of bed bugs on the nootkatone-treated filter papers.
A formulation, containing 5% nootkatone, 0.1% butylated hydroxytoluene (BHT) in acetone was tested for efficacy for repelling adult bed bugs (Cimex lectularius) using the methods as described above.
The duration of 1% and 0.25% nootkatone […] repellent effects was evaluated in this example. Bed bug (Cimex lectularius) treatment chambers were created as described in part A above, except using 9-cm Petri dishes and semicircles of filter paper with a diameter of 9 cm. Five replicate semicircles of filter paper were treated with 1 ml 1.0% nootkatone, 0.1% BHT in ethanol; 0.25% nootkatone, 0.1% BHT in ethanol; or ethanol alone (control), and placed side by side with untreated filter papers (marked with a “c”) in Petri dishes so that the lid surfaces were completely covered as previously described in part A. Prior to addition of the bed bugs, the filter papers were confirmed to be completely dry and free of any residual ethanol odor.
Following chamber preparation, 10 bed bugs, having received a blood meal no more than 7 days prior, were added to each chamber on the untreated filter paper as described above. Distribution of the 10 bed bugs per chamber was recorded at 0.5, 1, 1.5, 2, and 24 hours following treatment (Day 1). At the end of 24 hours, the old bed bugs were removed from the Petri dish and 10 new bed bugs were added. […]

[1] = 0.01% nootkatone in acetone, Day 1, 0.5 hour
[2] = 0.01% nootkatone in acetone, Day 1, 1.5 hour
[3] = 0.01% nootkatone in acetone, Day 1, 2.0 hour
[4] = 0.01% nootkatone in acetone, Day 1, Average of time points
[5] = 0.01% nootkatone in acetone, Day 2, 0.5 hour
[6] = 0.01% nootkatone in acetone, Day 2, 1.0 hour
[7] = 0.01% nootkatone in acetone, Day 2, 1.5 hour
[8] = 0.01% nootkatone in acetone, Day 2, 2.0 hour
[9] = 0.01% nootkatone in acetone, Day 2, 24.0 hour
[10] = 0.01% nootkatone in acetone, Day 2, Average of time points
[11] = 0.10% nootkatone in acetone, Day 1, 1.0 hour
[12] = 0.10% nootkatone in acetone, Day 1, 1.5 hour
[13] = 0.10% nootkatone in acetone, Day 1, 24.0 hour
[14] = 0.10% nootkatone in acetone, Day 1, Average of time points
[15] = 0.10% nootkatone in acetone, Day 2, 0.5 hour
[16] = 0.10% nootkatone in acetone, Day 2, 1.0 hour
[17] = 0.10% nootkatone in acetone, Day 2, 1.5 hour
[18] = 0.10% nootkatone in acetone, Day 2, 2.0 hour
[19] = 0.10% nootkatone in acetone, Day 2, 24.0 hour
[20] = 0.10% nootkatone in acetone, Day 2, Average of time points
[21] = 0.50% nootkatone in acetone, Day 1, 1.0 hour
[22] = 0.50% nootkatone in acetone, Day 1, 1.5 hour
[23] = 0.50% nootkatone in acetone, Day 1, 2.0 hour
[24] = 0.50% nootkatone in acetone, Day 1, 24.0 hour
[25] = 0.50% nootkatone in acetone, Day 2, 0.5 hour
[26] = 0.50% nootkatone in acetone, Day 2, 1.5 hour
[27] = 0.50% nootkatone in acetone, Day 2, 2.0 hour
[28] = 0.50% nootkatone in acetone, Day 2, 24.0 hour

C=C(C)[C@@H]1CCC2=CC(=O)C[C@@H](C)[C@]2(C)C1 [nootkatone, 4,4a,5,6,7,8-hexahydro-6-isopropenyl-4,4a-dimethyl-2(3H)-naphtalenone]
Repellency (%) Treatment Group [1]: 68.0%
bed bugs on Nootkatone treatment filter paper (count, of 50) [1]: 16
bed bugs on Nootkatone treatment filter paper (count, of 50) (0.01% nootkatone in acetone, Day 1, 1.0 hour): 17
Repellency (%) Treatment Group [2]: 66.0%
bed bugs on Nootkatone treatment filter paper (count, of 50) [2]: 17
Repellency (%) Treatment Group [3]: 72.0%
bed bugs on Nootkatone treatment filter paper (count, of 50) [3]: 14
Repellency (%) Treatment Group (0.01% nootkatone in acetone, Day 1, 24.0 hour): 58.0%
Repellency (%) Treatment Group [4]: 66.0%
bed bugs on Nootkatone treatment filter paper (count, of 50) [4]: 17.0
Repellency (%) Treatment Group [5]: 82.0%
bed bugs on Nootkatone treatment filter paper (count, of 50) [5]: 9
Repellency (%) Treatment Group [6]: 72.0%
bed bugs on Nootkatone treatment filter paper (count, of 50) [6]: 14
Repellency (%) Treatment Group [7]: 62.0%
bed bugs on Nootkatone treatment filter paper (count, of 50) [7]: 19
Repellency (%) Treatment Group [8]: 64.0%
bed bugs on Nootkatone treatment filter paper (count, of 50) [8]: 18
Repellency (%) Treatment Group [9]: 62.0%
bed bugs on Nootkatone treatment filter paper (count, of 50) [9]: 19
Repellency (%) Treatment Group [10]: 68.4%
bed bugs on Nootkatone treatment filter paper (count, of 50) [10]: 15.8
bed bugs on Nootkatone treatment filter paper (count, of 50) (0.10% nootkatone in acetone, Day 1, 0.5 hour): 3
Repellency (%) Treatment Group [11]: 92.0%
bed bugs on Nootkatone treatment filter paper (count, of 50) [11]: 4
Repellency (%) Treatment Group [12]: 90.0%
bed bugs on Nootkatone treatment filter paper (count, of 50) [12]: 5
bed bugs on Nootkatone treatment filter paper (count, of 50) (0.10% nootkatone in acetone, Day 1, 2.0 hour): 3
Repellency (%) Treatment Group [13]: 98.0%
bed bugs on Nootkatone treatment filter paper (count, of 50) [13]: 1
Repellency (%) Treatment Group [14]: 93.6%
bed bugs on Nootkatone treatment filter paper (count, of 50) [14]: 3.2
Repellency (%) Treatment Group [15]: 72.0%
bed bugs on Nootkatone treatment filter paper (count, of 50) [15]: 14
Repellency (%) Treatment Group [16]: 70.0%
bed bugs on Nootkatone treatment filter paper (count, of 50) [16]: 15
Repellency (%) Treatment Group [17]: 74.0%
bed bugs on Nootkatone treatment filter paper (count, of 50) [17]: 13
Repellency (%) Treatment Group [18]: 70.0%
bed bugs on Nootkatone treatment filter paper (count, of 50) [18]: 15
Repellency (%) Treatment Group [19]: 82.0%
bed bugs on Nootkatone treatment filter paper (count, of 50) [19]: 9
Repellency (%) Treatment Group [20]: 73.6%
bed bugs on Nootkatone treatment filter paper (count, of 50) [20]: 13.2
bedbug repellency, in words (0.1% nootkatone in acetone, day two): moderate (statistically significant) repellent
bedbug repellency, in words (0.25% nootkatone in ethanol): not sufficient to repel bed bugs
Corrected 0.25% nootkatone repellency (Day 1): 19%
bed bugs on 0.25% Nootkatone-treated filter paper, average count (of 10) (Day 1): 2.68
Corrected 0.25% nootkatone repellency (Day 2): 23%
bed bugs on 0.25% Nootkatone-treated filter paper, average count (of 10) (Day 2): 4.2
Corrected 0.25% nootkatone repellency (Day 3): 49%
bed bugs on 0.25% Nootkatone-treated filter paper, average count (of 10) (Day 3): 2.32
Corrected 0.25% nootkatone repellency (Day 4): −14%
bed bugs on 0.25% Nootkatone-treated filter paper, average count (of 10) (Day 4): 4
Repellency (%) Treatment Group [21]: 100.0%
bed bugs on Nootkatone treatment filter paper (count, of 50) [21]: 0
Repellency (%) Treatment Group [22]: 100.0%
bed bugs on Nootkatone treatment filter paper (count, of 50) [22]: 0
Repellency (%) Treatment Group [23]: 100.0%
bed bugs on Nootkatone treatment filter paper (count, of 50) [23]: 0
Repellency (%) Treatment Group [24]: 100.0%
bed bugs on Nootkatone treatment filter paper (count, of 50) [24]: 0
Repellency (%) Treatment Group (0.50% nootkatone in acetone, Day 1, Average of time points): 100.0%
Repellency (%) Treatment Group [25]: 86.0%
bed bugs on Nootkatone treatment filter paper (count, of 50) [25]: 7
bed bugs on Nootkatone treatment filter paper (count, of 50) (0.50% nootkatone in acetone, Day 2, 1.0 hour): 6
Repellency (%) Treatment Group [26]: 94.0%
bed bugs on Nootkatone treatment filter paper (count, of 50) [26]: 3
Repellency (%) Treatment Group [27]: 98.0%
bed bugs on Nootkatone treatment filter paper (count, of 50) [27]: 1
Repellency (%) Treatment Group [28]: 92.0%
bed bugs on Nootkatone treatment filter paper (count, of 50) [28]: 4
Repellency (%) Treatment Group (0.50% nootkatone in acetone, Day 2, Average of time points): 91.6%
duration of bed bug repellency following treatment (1% nootkatone in ethanol on filter paper): about 4 days
Corrected 1% nootkatone repellency (Day 1): 93%
bed bugs on 1% Nootkatone-treated filter paper, average count (of 10) (Day 1): 0.24
Corrected 1% nootkatone repellency (Day 2): 66%
bed bugs on 1% Nootkatone-treated filter paper, average count (of 10) (Day 2): 1.84
Corrected 1% nootkatone repellency (Day 3): 81%
bed bugs on 1% Nootkatone-treated filter paper, average count (of 10) (Day 3): 0.88
Corrected 1% nootkatone repellency (Day 4): 84%
bed bugs on 1% Nootkatone-treated filter paper, average count (of 10) (Day 4): 0.56
Corrected 1% nootkatone repellency (Day 5): 68%
bed bugs on 1% Nootkatone-treated filter paper, average count (of 10) (Day 5): 1.52
Corrected 1% nootkatone repellency (Day 6): 20%
bed bugs on 1% Nootkatone-treated filter paper, average count (of 10) (Day 6): 2.24
Corrected 1% nootkatone repellency (Day 7): 63%
bed bugs on 1% Nootkatone-treated filter paper, average count (of 10) (Day 7): 1.84
Nootkatone Repellency (0.5 hr): 100.0%
bed bugs on nootkatone-treated filter paper (count, of 50) (0.5 hr): 0
Nootkatone Repellency (1 hr): 100.0%
bed bugs on nootkatone-treated filter paper (count, of 50) (1 hr): 0
Nootkatone Repellency (1.5 hr): 100.0%
bed bugs on nootkatone-treated filter paper (count, of 50) (1.5 hr): 0
Nootkatone Repellency (2 hr): 100.0%
bed bugs on nootkatone-treated filter paper (count, of 50) (2 hr): 0
Nootkatone Repellency (24 hr): 100.0%
bed bugs on nootkatone-treated filter paper (count, of 50) (24 hr): 0
Nootkatone Repellency (Averages of time points): 100.0%
bed bugs on nootkatone-treated filter paper (count, of 50) (Averages of time points): 0
bed bug repellency compared with acetone alone, in words (5% nootkatone in acetone): repels bed bugs to a greater extent than that observed for acetone alone
bed bug repellency compared with isopropanol alone, in words (10% nootkatone in isopropyl alcohol): repels bed bugs to a greater extent than that observed for isopropanol alone
Nootkatone Repellency (corrected for isopropanol control) (0.5 hr): 85.7%
bed bugs on 10% Nootkatone-treated filter paper, average count of five trials (of 10) (0.5 hr): 0.4
Nootkatone Repellency (corrected for isopropanol control) (1 hr): 100.0%
bed bugs on 10% Nootkatone-treated filter paper, average count of five trials (of 10) (1 hr): 0
Nootkatone Repellency (corrected for isopropanol control) (1.5 hr): 100.0%
bed bugs on 10% Nootkatone-treated filter paper, average count of five trials (of 10) (1.5 hr): 0
Nootkatone Repellency (corrected for isopropanol control) (2 hr): 100.0%
bed bugs on 10% Nootkatone-treated filter paper, average count of five trials (of 10) (2 hr): 0
Nootkatone Repellency (corrected for isopropanol control) (24 hr): 100.0%
bed bugs on 10% Nootkatone-treated filter paper, average count of five trials (of 10) (24 hr): 0
Repellency (summary of bedbug repellency) (Nootkatone 0.010% in acetone, Day 2): 68.0%
Repellency (summary of bedbug repellency) (Nootkatone 0.10% in acetone, Day 2): 73.6%
Repellency (summary of bedbug repellency) (Nootkatone 0.50% in acetone, Day 1): 100.0%
Repellency (summary of bedbug repellency) (Nootkatone 0.50% in acetone, Day 2): 91.6%
